# Data: a melting point compilation (Tetko et al.; mined from patent text by program, amines drawn as free bases though some values may be those of a salt)
row,SMILES,melting point
1,CCOC(=O)C1=Cc2c(OC)ccc(OC)c2CC1,74 to 76 °C
2,CN1[C@@H](c2cccc(Br)c2)c2ccccc2S1(=O)=O,157 °C
3,CNC(=O)C(=O)c1ccccc1COc1ccc(-c2ccccc2)cc1,144 to 145 °C
4,Cc1ccc(NC2CCCc3cc(C)cnc32)cc1 (configuration not stated),83 to 85 °C
5,Fc1ccc(-c2ncn(CC3CC3)c2-c2ccncc2)cc1,162 °C
6,"Cc1ccccc1Sc1ccc2c(c1)CCC1N(C)C(=O)CCC21C (single isomer, unassigned; (+))",105 to 106 °C
7,Cc1ccc(C=CC(=O)N(C)O)cc1,142 to 144 °C
8,CC(C)(C)OC(=O)N1CC[C@@H]2Nc3cccc(Br)c3[C@@H]2CC1 (relative stereo),124 °C
9,O=C(Cc1c[nH]c2ccccc12)OCc1ccccc1,71 to 72 °C
10,CCN1CC(=O)N(c2cc(F)ccc2C)C1=S,98 to 100 °C
11,Nc1ccccc1SCc1ncon1,57 °C
12,Cc1cnc(-c2cc3c(O)cccc3s2)o1,188 to 189 °C
13,O=CN1CCN(c2nc3ccc(Cl)ccc-3n2)CC1,228 to 229 °C
14,O=C(NCc1cccnc1)c1ccc2n1Cc1ccccc1N(C(=O)c1ccc(-c3ccccc3C=NO)cc1)C2,165 to 167 °C
15,S=C=Nc1ccc2nc(Oc3ccccc3)sc2c1,118 to 119 °C
16,N#Cc1c(Nc2c(F)cccc2F)cccc1-c1ccccc1,139 to 141 °C

row,SMILES,melting point
1,Cc1cc(C)c2sc(N)nc2c1,142 to 144 °C
2,Cc1c(N)cccc1OC1CCN(C(=O)OC(C)(C)C)C1 (configuration not stated),137 °C
3,Cc1c(O)ccc(C(=O)c2cccs2)c1C,144 °C
4,CCOC(=O)c1cnn2c1c(SC)nc1c(C)nn(C)c12,86 to 87 °C
5,Cc1cc(C2CC(C)(C)CC(C)(C)C2(O)C#C[Si](C)(C)C)ccc1F (configuration not stated),76 to 78 °C
6,CCCc1nn(-c2ccc(C(F)(F)F)cn2)cc1CCCCOc1nn(-c2ccccc2)cc1CC(=O)O,114 to 115 °C
7,Fc1ccc2c(N3CCN(Cc4ccccc4)CC3)n[nH]c2c1,162 °C
8,CCCCN(CCCC)C(=O)NCCc1ccc(-c2csc(NC(=O)OC(C)(C)C)n2)cc1,70 to 75 °C
9,CSc1ccc(N2CCON(C)C2=O)cc1C(F)(F)F,60 °C
10,O=C(O)C1=Cc2cc(SC(F)(F)F)ccc2SC1C(F)(F)F (configuration not stated),129 to 132 °C
11,CCCCCc1cc2c(cc1C#C/C=C/C(C)=C/C(=O)O)C(C)(C)CCC2(C)C,155 to 156 °C
12,OCc1ccc(-c2nn(Cc3ccccc3)c3ncccc23)o1,104 °C
13,CCCCCC(C)C(C)c1cc(O)c2c3c(c(=O)oc2c1)CSC3 (configuration not stated),165 to 166 °C
14,O=C1NC(=NC2CCCCC2)C(c2ccc(Br)cc2)N1c1ccc2[nH]cnc2c1 (configuration not stated),205 °C
15,CC(C)n1c(C=O)c(-c2ccc(F)cc2)c(-c2ccccc2)c1C(=O)NCc1ccc(F)cc1,171 to 172 °C

# Further lines, results first:
row,melting point,SMILES
1,> 250 °C,CC(=O)Nc1nc2ccc(S(=O)(=O)n3c(CCCC(=O)O)cc4cc(Cl)ccc43)cc2s1
2,144 °C,CCCCOc1ccc(S(=O)(=O)C2(C(=O)NO)CCN(Cc3ccccc3)CC2)cc1
3,171 to 173 °C,CCOC1COCC1Oc1cc(C(=O)Nc2c(Cl)cncc2Cl)ccc1OC (configuration not stated)
4,206 to 208 °C,CN(C)c1ccc2c(c1)CN(c1cccc(-c3cc(Nc4ccncn4)c(=O)n(C)c3)c1CO)C2=O
5,71 to 74 °C,O=C(NCc1ccc(Cl)cc1)c1cn2c(CO)cc3cc(CC4CCOCC4)cc(c1=O)c32
6,162 °C,Cc1cc(NC(=O)c2cc(Cl)cc(C)n2)ccn1
7,268 to 270 °C,CCOC(=O)COc1ccc([N+](=O)[O-])c(C=C2NC(=O)NC2=O)c1
8,116 to 117 °C,CCOC(=O)CCCCn1c(=O)[nH]c2ccsc2c1=O
9,256 °C,O=C(Nc1ccc2ccc(Cl)nc2n1)c1ccc2c(c1)OCO2
10,144 to 145 °C,CCN(CC)Cc1nc2cc(OC)c(OC)cc2c(-c2ccc(OC)c(OC)c2)c1C(C)O (configuration not stated)
11,230 to 238 °C,CCOC(=O)c1nc(-c2ccc(=O)[nH]c2)c(-c2ccccc2)nc1N
12,128 to 139 °C,CS(=O)(=O)NC1CCN(C(=O)Cn2nc(-c3ccncc3)cc2Cc2ccc(F)cc2)CC1
13,95 to 110 °C,CC(=O)C(CC=Cc1ccccc1Cl)(CCC(=O)O)c1ccccc1 (configuration not stated)
14,177 to 179 °C,CN(C)CCNc1ccc([N+](=O)[O-])c2sc3ccccc3c(=O)c12
15,103 to 104 °C,COc1cccc(-n2nc(Cl)cc2-c2ccc(S(C)(=O)=O)cc2)c1
16,47 to 49 °C,CCOC(=O)c1ccc2c(c1)CC(Cc1cncs1)C2 (configuration not stated)
17,96 to 99 °C,O[C@@H](COc1cccc(-c2noc3ccsc23)c1)CN1CCN(c2ccccc2F)CC1
18,75 to 76 °C,O=[N+]([O-])c1ccc(Oc2ccccc2)c(Cl)c1NCc1ccc(Cl)cc1
19,139 to 140 °C,CCCC(OC)c1ccc(Cl)c2nc3n(c12)CCCN3c1ccc(Cl)cc1Cl (configuration not stated)
20,86 to 88 °C,O=c1n(CCCF)nnn1-c1ccc(OCc2ccc(F)cc2)cc1F
21,135 °C,COC(=O)CCCC#Cc1cc(Cl)ccc1NS(=O)(=O)c1ccc2nc(N)oc2c1
